Reference: ChEMBL document CHEMBL1133804, “Naphthalene derivatives: A new series of selective cyclooxygenase-2 inhibitors” (Bioorg Med Chem Lett, 2001)
Calls of active or inactive are those of the source. The calls are words filed in the database; no cut-off is given here.

Legend:
[1] = target: T1, Prostaglandin G/H synthase 1 (Rattus norvegicus, UniProt Q63921)
T1 sequence (Q63921 whole entry): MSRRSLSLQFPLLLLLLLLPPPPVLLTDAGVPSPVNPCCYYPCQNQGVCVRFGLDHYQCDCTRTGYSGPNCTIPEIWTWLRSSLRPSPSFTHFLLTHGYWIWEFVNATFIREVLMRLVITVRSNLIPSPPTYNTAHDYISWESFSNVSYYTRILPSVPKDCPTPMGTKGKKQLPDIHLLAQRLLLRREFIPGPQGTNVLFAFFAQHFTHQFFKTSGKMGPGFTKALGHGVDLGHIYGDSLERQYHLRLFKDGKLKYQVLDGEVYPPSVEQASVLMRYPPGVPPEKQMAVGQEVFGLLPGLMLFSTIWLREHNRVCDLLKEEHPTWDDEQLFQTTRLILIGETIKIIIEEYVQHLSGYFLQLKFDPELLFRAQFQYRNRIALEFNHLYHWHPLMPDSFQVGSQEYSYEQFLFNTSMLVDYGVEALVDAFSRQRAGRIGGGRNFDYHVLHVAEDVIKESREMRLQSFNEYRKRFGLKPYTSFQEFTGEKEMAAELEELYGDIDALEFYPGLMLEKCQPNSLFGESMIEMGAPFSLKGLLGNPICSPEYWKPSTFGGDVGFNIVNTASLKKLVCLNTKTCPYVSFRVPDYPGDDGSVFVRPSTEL
Description: In vitro inhibitory concentration against rat prostaglandin G/H synthase 1

[2] = system: Rattus norvegicus; experiment: Antiinflammatory activity in vivo by carrageenan paw edema assay in rat at a dose of 30 mg/kg: NA is inactive; format: functional, organism-based; design: dose 30 mg/kg
[3] = system: Rattus norvegicus; experiment: Antiinflammatory activity in vivo by carrageenan paw edema assay in rat at a dose of 3 mg/kg; format: functional
[4] = system: Rattus norvegicus; experiment: Anti-inflammatory activity in vivo by carrageenan paw edema assay in rat at a dose of 30 mg/kg; format: functional
[5] = system: Rattus norvegicus; experiment: Antiinflammatory activity in vivo by carrageenan paw edema assay in rat at a dose of 3 mg/kg; NA is inactive; format: functional, organism-based; design: dose 3 mg/kg
[6] = species on record: Rattus norvegicus; experiment: Dose producing ulceration in rats; format: functional
[7] = system: Rattus norvegicus; experiment: Antiinflammatory activity in vivo by carrageenan paw edema assay in rat at a dose of 30 mg/kg; NA is inactive; format: functional, organism-based; design: dose 30 mg/kg
[8] = species on record: Rattus norvegicus; details: 30 mg/kg
Description: Antiinflammatory activity in vivo by carrageenan paw edema assay in rat at a dose of 30 mg/kg; NA is not active

[9] = system: Rattus norvegicus; experiment: Antiinflammatory activity in vivo by carrageenan paw edema assay in rat; NA is inactive; format: functional, organism-based
[10] = system: Rattus norvegicus; experiment: Antiinflammatory activity in vivo by carrageenan paw edema assay in rat at a dose of 10 mg/kg; details: read-out: Inhibition

Row | IC50 [1] [µM] | Compound | inhibition in vivo at 3 mg/kg [3] [%] | inhibition in vivo at 30 mg/kg [4] [%] | also measured
1 | 7.3 | CCC(C(=O)O)c1ccc(Cc2ccc(F)cc2)c2ccc(OC)cc12 (stereo unspecified) |  |  | inhibition [2]: inactive
2 | 2.8 | COc1ccc2c(Cc3ccc(C)cc3)ccc(C(C)C(=O)O)c2c1 (stereo unspecified) | 30 | 49 | 
3 | > 100 | CC(C(=O)O)c1ccc(Cc2ccc(Cl)cc2)c2ccc(S(C)(=O)=O)cc12 (stereo unspecified) |  |  | inhibition [4]: inactive
4 |  | Cc1ccc(-c2cc(C(F)(F)F)nn2-c2ccc(S(N)(=O)=O)cc2)cc1 [CELECOXIB] | 41 | 40 | 
5 | 2.4 | CC(C(=O)O)c1ccc(Cc2ccc(F)cc2)c2ccccc12 (stereo unspecified) |  | 16 | 
6 | > 100 | CCOc1ccc(Cc2ccc(C(C)C(=O)O)c3cc(OC)ccc23)cc1 (stereo unspecified) | 27 | 52 | 
7 | 2.3 | COc1ccc2c(Cc3ccccc3Cl)ccc(C(C)C(=O)O)c2c1 (stereo unspecified) | 5 | 13 | 
8 | 19.9 | CSc1ccc2c(Cc3ccc(Cl)cc3)ccc(C(C)C(=O)O)c2c1 (stereo unspecified) |  | 16 | 
9 |  | COc1ccc2c(Cc3cccc(Cl)c3)ccc(C(C)C(=O)O)c2c1 (stereo unspecified) | 0 | 0 | 
10 | 40.8 | COc1ccc2c(Cc3ccc(C(C)(C)C)cc3)ccc(C(C)C(=O)O)c2c1 (stereo unspecified) |  | 32 | inhibition [5]: inactive
11 | > 100 | COc1ccc2c(Cc3ccc(Cl)cc3)ccc(CC(=O)O)c2c1 |  | 52 | 
12 | 1.5 | COc1ccc2c(Cc3ccccc3)ccc(C(C)C(=O)O)c2c1 (stereo unspecified) | 30 | 58 | 
13 |  | CS(=O)(=O)c1ccc(C2=C(c3ccccc3)C(=O)OC2)cc1 [ROFECOXIB] | 41 |  | 
14 | 4.1 | COc1ccc2c(Cc3ccc(Cl)cc3)ccc(C(C)C(=O)O)c2c1 (stereo unspecified) |  | 50 | ED50 [6]: 40 mg/kg
15 | 218 | COc1ccc2c(Cc3ccc(C(C)=O)cc3)ccc(C(C)C(=O)O)c2c1 (stereo unspecified) |  |  | inhibition [5]: inactive; inhibition [7]: inactive
16 | > 100 | COc1ccc2c(Cc3ccc(Cl)cc3)cc(CC(=O)O)cc2c1 |  |  | inhibition [7]: inactive
17 | 8.8 | COc1ccc(Cc2ccc(C(C)C(=O)O)c3cc(OC)ccc23)cc1 (stereo unspecified) | 22 | 45 | 
18 | > 100 | COc1ccc2c(Cc3ccc(Cl)cc3)c(CC(=O)O)ccc2c1 |  |  | inhibition [8]: inactive
19 | > 100 | CC(C(=O)O)c1ccc(Cc2ccc(Cl)cc2)c2ccc(Cl)cc12 (stereo unspecified) |  |  | inhibition [8]: inactive
20 | > 100 | COc1ccc2c(C(C)C(=O)O)ccc(Cc3ccc(F)cc3)c2c1 (stereo unspecified) |  |  | inhibition [7]: inactive
21 | > 100 | COc1ccc2c(Cc3ccc(Cl)cc3)cccc2c1 |  |  | inhibition [7]: inactive
22 | 1.7 | COc1ccc2c(Cc3ccc(F)cc3)ccc(C(C)C(=O)O)c2c1 (stereo unspecified) |  | 53 | 
23 | 61 | CCc1ccc2c(Cc3ccc(Cl)cc3)ccc(C(C)C(=O)O)c2c1 (stereo unspecified) |  |  | inhibition [9]: inactive
24 |  | COc1ccc2c(c1)c(CC(=O)O)c(C)n2C(=O)c1ccc(Cl)cc1 [INDOMETHACIN] |  |  | inhibition in vivo at 10 mg/kg [10]: 100%
25 | > 100 | CCc1ccc(Cc2ccc(C(C)C(=O)O)c3cc(OC)ccc23)cc1 (stereo unspecified) |  | 32 | 
